Laboratory results published in PubChem BioAssay (NCI).
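Method: 48-hour compound exposure of cells in 96-well plates, five concentrations, linear interpolation of endpoints. TGI denotes the concentration required for complete inhibition of growth.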

Tests used:
Assay in all cases: inhibition of tumour cell growth, NCI panel, 48 h
[1] = test system: SK-MEL-5 melanoma
[2] = test system: EKVX NSCLC
[3] = test system: KM12 colon
[4] = test system: U251 CNS
[5] = test system: NCI-H460 lung
[6] = test system: OVCAR-4 ovarian
[7] = test system: RXF 393 renal
[8] = test system: ACHN renal
[9] = test system: CCRF-CEM leukemia
[10] = test system: OVCAR-8 ovarian
[11] = test system: DMS 273 small cell lung
[12] = test system: NCI-H226 lung
[13] = test system: HL-60(TB) leukemia
[14] = test system: OVCAR-3 ovarian
[15] = test system: TK-10 renal
[16] = test system: SNB-19 CNS
[17] = test system: SF-539 CNS
[18] = test system: HT29 colon
[19] = test system: OVCAR-5 ovarian
[20] = test system: A549 NSCLC
[21] = test system: SN12C renal
[22] = test system: MALME-3M melanoma
[23] = test system: SR leukemia
[24] = test system: HOP-92 NSCLC
[25] = test system: DLD-1 colon
[26] = test system: SK-MEL-2 melanoma
[27] = test system: NCI-H23 lung
[28] = test system: DMS 114 small cell lung
[29] = test system: HOP-18 NSCLC
[30] = test system: UO-31 renal
[31] = test system: CAKI-1 renal
[32] = test system: COLO 205 colon
[33] = test system: IGROV1 ovarian
[34] = test system: SF-268 CNS
[35] = test system: NCI-H522 lung
[36] = test system: LOX IMVI melanoma
[37] = test system: HCT-15 colon
[38] = test system: LXFL 529 NSCLC
[39] = test system: SK-OV-3 ovarian
[40] = test system: MOLT-4 leukemia
[41] = test system: SW-620 colon
[42] = test system: M19-MEL melanoma
[43] = test system: K-562 leukemia
[44] = test system: SK-MEL-28 melanoma
[45] = test system: HCC-2998 colon
[46] = test system: M14 melanoma
[47] = test system: UACC-62 melanoma
[48] = test system: HCT-116 colon
[49] = test system: HOP-62 NSCLC
[50] = test system: RPMI-8226 leukemia
[51] = test system: KM20L2 colon
[52] = test system: MDA-MB-435
[53] = test system: MDA-MB-231 breast
[54] = test system: 786-0 renal
[55] = test system: A498 renal
[56] = test system: UACC-257 melanoma
[57] = test system: PC-3 prostate
[58] = test system: MCF7 breast
[59] = test system: T-47D breast
[60] = test system: SNB-75 CNS
[61] = test system: SF-295 CNS
[62] = test system: HS 578T breast
[63] = test system: DU-145 prostate
[64] = test system: BT-549 breast
[65] = test system: NCI/ADR-RES ovarian
[66] = test system: MDA-N

With `COc1ccc(C[C@H](N)C(=O)N2C[C@H](CO)C[C@H](n3cnc4c(N(C)C)ncnc43)C2)cc1` the TGI [1] was > 100 µM, the TGI [2] was > 100 µM and the TGI [3] was > 100 µM. For the same molecule, the TGI [4] was > 100 µM, the TGI [5] was > 100 µM and the TGI [6] was > 100 µM. The TGI [7] was > 100 µM, the TGI [8] was > 100 µM and the TGI [9] was > 100 µM. The TGI [10] was > 100 µM, the TGI [11] was > 100 µM and the TGI [12] was > 100 µM. The TGI [13] was > 100 µM, the TGI [14] was > 100 µM and the TGI [15] was > 100 µM. The TGI [16] was > 100 µM, the TGI [17] was > 100 µM and the TGI [18] was > 100 µM. For the same molecule, the TGI [19] was > 100 µM, the TGI [20] was > 100 µM and the TGI [21] was > 100 µM. For the same molecule, the TGI [22] was > 100 µM, the TGI [23] was > 100 µM and the TGI [24] was > 100 µM. The TGI [25] was > 100 µM, the TGI [26] was > 100 µM and the TGI [27] was > 100 µM. The TGI [28] was > 100 µM, the TGI [29] was > 100 µM and the TGI [30] was > 100 µM. For the same molecule, the TGI [31] was > 100 µM, the TGI [32] was > 100 µM and the TGI [33] was > 100 µM. The TGI [34] was > 100 µM, the TGI [35] was > 100 µM and the TGI [36] was > 100 µM. The TGI [37] was > 100 µM, the TGI [38] was > 100 µM and the TGI [39] was > 100 µM. The TGI [40] was > 100 µM, the TGI [41] was > 100 µM and the TGI [42] was > 100 µM. The TGI [43] was > 100 µM, the TGI [44] was > 100 µM and the TGI [45] was > 100 µM. For the same molecule, the TGI [46] was > 100 µM, the TGI [47] was > 100 µM and the TGI [48] was > 100 µM. The TGI [49] was > 100 µM, the TGI [50] was > 100 µM and the TGI [51] was > 100 µM.
`CC1CC[C@@]2(OC1)O[C@H]1C[C@H]3[C@@H]4CC[C@H]5C[C@@H](OC6OC(CO)C(OC7OC(CO)C(OC8OC(CO)C(O)C(OC9OC(C)C(OC%10OC(C)C(O)C(O)C%10O)C(O)C9O)C8OC8OCC(O)C(O)C8O)C(O)C7O)C(O)C6O)CC[C@]5(C)[C@H]4CC(=O)[C@]3(C)[C@H]1[C@@H]2C` (stereo not given in full) was tested, and the TGI [1] was 30.4 µM, the TGI [2] was 40.4 µM and the TGI [3] was 36.1 µM. The TGI [4] was 33.3 µM, the TGI [5] was 32.9 µM and the TGI [6] was 32.7 µM. For the same molecule, the TGI [52] was 35.7 µM, the TGI [7] was 35.7 µM and the TGI [8] was 30.9 µM. It also gave a TGI [53] of 30.1 µM, a TGI [9] of 29.2 µM and a TGI [10] of 38.4 µM. It also gave a TGI [12] of 35.5 µM, a TGI [13] of 27.6 µM and a TGI [14] of 42.3 µM. It also gave a TGI [15] of 31.5 µM, a TGI [16] of 39.4 µM and a TGI [17] of 28.5 µM. The TGI [18] was > 100 µM, the TGI [19] was 40.3 µM and the TGI [20] was 51.3 µM. For the same molecule, the TGI [21] was 40.9 µM, the TGI [22] was 41.3 µM and the TGI [23] was 30.3 µM. The TGI [54] was 54.9 µM, the TGI [24] was 38.2 µM and the TGI [55] was 32.1 µM. For the same molecule, the TGI [56] was 32.3 µM, the TGI [26] was 30 µM and the TGI [57] was 30.9 µM. The TGI [27] was 35.8 µM, the TGI [30] was 44.5 µM and the TGI [31] was 29.3 µM. The TGI [32] was 30.1 µM, the TGI [33] was 37.4 µM and the TGI [58] was 31.8 µM. It also gave a TGI [59] of 43.2 µM, a TGI [34] of 56.9 µM and a TGI [35] of 42.4 µM. The TGI [60] was 36.5 µM, the TGI [36] was 53.5 µM and the TGI [61] was 39.3 µM. The TGI [62] was 50.7 µM, the TGI [37] was 35.2 µM and the TGI [63] was 40.4 µM. It also gave a TGI [64] of 37 µM, a TGI [65] of 43.2 µM and a TGI [39] of 41.6 µM. The TGI [40] was 34.6 µM, the TGI [41] was 42 µM and the TGI [43] was 32.7 µM. It also gave a TGI [44] of 34.3 µM, a TGI [45] of 32.8 µM and a TGI [46] of 41.7 µM. For the same molecule, the TGI [47] was 32.8 µM, the TGI [48] was 52.9 µM and the TGI [49] was 45.5 µM. It also gave a TGI [50] of 33.3 µM and a TGI [66] of 39.4 µM.
